Where “and” joins values, the source holds several entries; their conditions need not be identical. Equal values may be shown once.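 A five-concentration, 48-hour dose response in 96-well plates underlies each endpoint, interpolated linearly between surrounding concentrations. GI50 = concentration required for 50% inhibition of growth. Definition used: TGI = concentration required for complete inhibition of growth.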 *1 amine or outer side, *2 acyl side, *3 side chain or, on linkers, in order; H or OH if unused. Where a SMILES comes first, the peptide text is derived from it. Bridges are numbered along the chain shown (N, C = ends). [ ]: non-standard residue; d: D form. ξ: configuration not given here. X4 = CCC(C)C(N[*:1])C(O)CC(=O)O[C@H](C(=O)C(C)C(=O)[*:2])C(C)C; NMeY = CN[C@@H](Cc1ccc(O)cc1)C(=O)O; X9 = O=C([C@@H]1CC(O)CN1[*:1])[*:2]; ξNMeL = CNC(CC(C)C)C(=O)O; ξT = CC(O)C(N)C(=O)O
Assays:
Experiment in all cases: growth of human tumour cells (NCI), 48 h
SF-295 CNS = system: SF-295 CNS
NCI/ADR-RES ovarian = system: NCI/ADR-RES ovarian
BT-549 breast = system: BT-549 breast
CAKI-1 renal = system: CAKI-1 renal
786-0 renal = system: 786-0 renal
MALME-3M melanoma = system: MALME-3M melanoma
HL-60(TB) leukemia = system: HL-60(TB) leukemia
HCT-116 colon = system: HCT-116 colon
NCI-H226 lung = system: NCI-H226 lung
DU-145 prostate = system: DU-145 prostate

SMILES | GI50 (SF-295 CNS) [µM] | TGI (SF-295 CNS) | GI50 (NCI/ADR-RES ovarian) [µM] | TGI (NCI/ADR-RES ovarian) [µM] | GI50 (BT-549 breast) [µM] | TGI (BT-549 breast) | GI50 (CAKI-1 renal) [µM] | TGI (CAKI-1 renal) [µM] | GI50 (786-0 renal) [µM] | TGI (786-0 renal) | GI50 (MALME-3M melanoma) [µM] | TGI (MALME-3M melanoma) | GI50 (HL-60(TB) leukemia) [µM] | TGI (HL-60(TB) leukemia) [µM] | GI50 (HCT-116 colon) [µM] | TGI (HCT-116 colon) [µM] | GI50 (NCI-H226 lung) [µM] | TGI (NCI-H226 lung) | GI50 (DU-145 prostate) [µM] | TGI (DU-145 prostate)
O=c1cc/c(=N\Nc2ccccc2)c(=O)/c1=N/Nc1ccccc1 | > 50 | > 50 µM | > 50 | > 50 | > 50 | > 50 µM | > 50 | > 50 | > 50 | > 50 µM | > 50 | > 50 µM | > 50 | > 50 | > 50 | > 50 | > 50 | > 50 µM | > 50 | > 50 µM
CCC(C)C1NC(=O)C(NC(=O)C(CC(C)C)N(C)C(=O)[C@@H]2CC(O)CN2)C(C)OC(=O)[C@H](Cc2ccc(OC)cc2)N(C)C(=O)[C@@H]2CCCN2C(=O)[C@H](CC(C)C)NC(=O)C(C)C(=O)[C@H](C(C)C)OC(=O)CC1O (stereo not given in full) (H-[X9][ξNMeL][ξT][X4]LP[NMeY](Me); ester 3-C) | 0.0166 | 0.286 µM and 0.304 µM | 4.46 | > 100 |  | 0.0575 µM and 0.0866 µM | 0.151 | 2.65 | 0.0162 | 0.149 µM and 1.25 µM |  | 0.0989 µM and 0.139 µM | 0.035 |  |  |  | 0.0302 | 0.0804 µM and 0.355 µM | 0.0149 | 0.398 µM and 0.55 µM
COc1cc2c(cc1OCCCCCOc1cc(-c3ccc(F)cc3)nc(C)n1)N=C[C@@H]1CCCN1C2=O | > 50.9 | > 76.1 µM | > 100 | > 100 | > 32.8 | > 61.1 µM | > 41.7 | > 66.9 | > 44.9 | > 67.5 µM | > 48.3 | > 68.7 µM | > 100 | > 100 | > 52.9 | 98.4 | > 100 | > 100 µM | > 39.8 | > 87.4 µM
COC(=O)c1c2c(c(C)[n+]([O-])c1C)C(=O)C=C(NCc1ccc(Cl)cc1)C2=O | 0.362 | 1.58 µM | 0.31 | 3.22 | 1.22 | 2.58 µM | 0.109 | 2.18 | 1.32 | 3.57 µM | 0.157 | 0.381 µM | 0.324 | 1.55 | 0.249 | 1.05 | 1.43 | 3.52 µM | 1.09 | 2.32 µM
COC(=O)C1=CN(CC2=CC(=O)C(C)=CC2=O)C=C(C(=O)OC)C1c1cccc(OC)c1OC | 6.88 | > 41.8 µM | 18.3 | 38.3 | 34.3 | > 100 µM | 10.9 | 29.7 | 7.56 | 25.3 µM | 13.5 | 34.3 µM | 5.07 | 14.1 | 18.5 | 36.7 | 15.6 | 40.5 µM | 17.4 | 33.1 µM
Cc1ccc(NC(=O)c2ccnc(C(F)(F)F)c2)cc1-c1cc(OCCO)nc(N2CCOCC2)c1 | 3.57 | 17.6 µM | 2.63 | 11.5 | 5.87 | 22.9 µM | 1.62 | 38.7 | 6.29 | 38.2 µM | 0.108 | 0.66 µM | 1.05 | 6.51 | 0.7 | > 100 | 2.81 | 34.6 µM | 4.09 | 61.2 µM

From PubChem BioAssay (NCI)
